Assay [1] addresses PrP^ac (Mesocricetus auratus, UniProt P04273). The note with it: scrapie-infected hamsters, controlled study; cited from earlier work.
For assay [2], the target named is PrP^ac (Mus musculus, UniProt P04925). The note with it: cell culture; not tested in animal models; cited from earlier work.
Assay [3] deals with untransfected bovine fetal fibroblasts (BFF cells). In kind it is cell-based.

Chain of PrP^ac (Mus musculus, UniProt P04925) (P04925 23-230 limits assumed): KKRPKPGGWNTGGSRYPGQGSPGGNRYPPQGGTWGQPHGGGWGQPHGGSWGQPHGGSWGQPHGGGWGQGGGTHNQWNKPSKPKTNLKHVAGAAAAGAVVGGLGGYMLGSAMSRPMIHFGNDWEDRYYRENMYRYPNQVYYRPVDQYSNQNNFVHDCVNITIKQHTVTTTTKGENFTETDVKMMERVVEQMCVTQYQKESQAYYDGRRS
Chain of PrP^ac (Mesocricetus auratus, UniProt P04273) (P04273 23-231 limits assumed): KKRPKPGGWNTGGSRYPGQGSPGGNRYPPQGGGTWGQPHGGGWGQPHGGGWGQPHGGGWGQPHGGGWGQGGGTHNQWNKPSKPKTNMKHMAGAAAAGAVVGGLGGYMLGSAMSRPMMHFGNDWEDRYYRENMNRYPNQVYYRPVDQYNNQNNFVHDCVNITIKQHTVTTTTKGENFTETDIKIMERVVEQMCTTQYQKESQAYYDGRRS

For `C[C@@H]1[C@H](O)[C@@H](C)/C=C/C=C/C=C/C=C/C=C/C=C/C=C/[C@H](O[C@@H]2O[C@H](C)[C@@H](O)[C@H](N)[C@@H]2O)C[C@@H]2O[C@](O)(C[C@@H](O)C[C@@H](O)[C@H](O)CC[C@@H](O)C[C@@H](O)CC(=O)O[C@H]1C)C[C@H](O)[C@H]2C(=O)O` [amphotericin B], the “effect on accumulation of PrP^ac” value at PrP^ac [1] is reported as “delayed the accumulation of PrP^ac”.

Take `Nc1c(/N=N/c2ccc(-c3ccc(/N=N/c4cc(S(=O)(=O)O)c5ccccc5c4N)cc3)cc2)cc(S(=O)(=O)O)c2ccccc12` [Congo red]: the “effect on accumulation of PrP^ac” value on PrP^ac [2] is “prevent accumulation of PrP^ac”.

`CN[C@@H]1[C@@H](O)[C@@H](O[C@@H]2[C@@H](O)[C@H](O[C@H]3O[C@H]([C@@H](C)O)[C@@H](O)[C@H](O)[C@H]3N)[C@@H](N)C[C@H]2N)OC[C@]1(C)O` [G418, geneticin (G418)]: in assay [3], the “concentration sufficient to kill non-neomycin containing BFF cells but allow rapid growth of BFF cells with transfected neomycin gene” value is 400 µg/mL, the “concentration that will sufficiently kill non-neomycin containing BEF cells but allow proliferation of cells with transfected neomycin gene” value is 400 µg/mL, the “lag time in drug selection” value is recorded as “approximately 3 days” and the “time of drug selection until BFF cells were dead” value was at most 3 days. On to pentosan polysulfate, for which the “effect on accumulation of PrP^ac” value on PrP^ac [2] is given as “prevent accumulation of PrP^ac”.

The record behind these values is patent US20020069423A1 (priority 2000, published 2002).
